Measurements published in patent US20250034196A1, “ESTER DERIVATIVES OF N4-HYDROXYCYTIDINE AND USE THEREOF” (priority 2021, published 2025).

Assays:
[1] = system: SARS-CoV-2 Omicron B.1.1.529 variant; conditions: Vero E6
[2] = system: SARS-CoV-2 Omicron B.1.1.529 variant; test: microbe, parasite or virus in culture; conditions: Severe acute respiratory syndrome coronavirus 2, Vero C1008, 96 h

Row | Structure (SMILES) | SI (CC50/EC50) [1] | EC50 [2] [µM] | EC90 [2] [µM]
1 | CC(=O)ONc1ccn([C@@H]2O[C@H](CO)[C@@H](O)[C@H]2O)c(=O)n1 [EX-2] | 11.38 | 1.6 | 2.48
2 | CC(C)C(=O)OC[C@H]1O[C@@H](n2ccc(NO)nc2=O)[C@H](O)[C@@H]1O [Molnupiravir] | >6.65 | 15.1 | 23.4
